Results taken from PMC6172217, “A handheld platform for target protein detection and quantification using disposable nanopore strips” (Scientific Reports, 2018).

Test system: 309 bp/bisPNA-affibody
Experiment: EMSA, TNFα complex formation
Type: binding

TNFα
EMSA complex formation (309 bp/PNA-affibody + TNFα, 1 h room temperature, pH 7.4): full DNA/PNA-affibody/TNFα complex formation | EMSA saturation, ratio TNFα to scaffold/bisPNA-affibody (band intensity appears to saturate): ≥ 3 X
